Converted amounts (≈) assume the structure as drawn. Where a SMILES comes first, the peptide text is derived from it.
How the values were obtained:
HEK-293 = assay: MTT cytotoxicity on normal cells; assay type: cell-based, human; conditions: 25 µM (highest tested concentration), 24 h, serum-free medium
Method: The used mammalian cell lines in our study were colorectal adenocarcinoma (Caco2, ATCC-HTB-37), colorectal carcinoma (HCT 116, ATCC-CCL-247), lung carcinoma (A549, ATCC- CCL-185), cervical cancer cells (HeLa, ATCC-CCL-2), neuroblastoma (SH-SY5Y, ATCC- CRL-2266), rhabdomyosarcoma (RD, ATCC- CCL-136) and human embryonic kidney cells (HEK 293, ATCC- CRL-1573). All the cells were maintained into Dulbecco’s Modified Eagle’s Medium (DMEM) supplemented with 10% heat-inactivated fetal bovine serum, 2 mM L-Glutamine, 100 U/ml penicillin–streptomycin (Pen/Strep) at 37 °C in 5% CO2 humidified incubator.
First, the cytotoxic effect of 24 h serum deprivation on all the selected cell lines was evaluated by MTT assay, following standard protocols. Briefly, cells were seeded and maintained at 37 °C and 5% CO2 in 24-well plates until they reached 75–80% confluency (zero time). Following washing twice with 1X PBS, cells were incubated in a serum-free medium for 24 h, under the same incubation conditions. The cell viability percentages were calculated and compared to zero time as 100% viability to nullify any possible effects of serum deprivation. Thence, the cell viability percentage of each cell line in response to 24 h treatment with different concentrations of each cryptide in serum-free medium was calculated. […] All the measured cell viability percentages were normalised against the corresponding negative controls.

B. subtilis = assay type: cell-based, Bacillus subtilis (ATCC, 11774); conditions: 20 µl of wells without growth on agar, 18 h, 37 °C
P. aeruginosa = assay type: cell-based, Pseudomonas aeruginosa (ATCC, 10145); conditions: micro-broth dilution, 3 h peptide treatment then MHB 18 h, 37 °C, OD 600 nm
From the text: (§1) The microbial strains used in this study were Bacillus subtilis (ATCC, 11774), Candida albicans (TIMM, 1768), Enterococcus faecalis (ATCC, 33186), Escherichia coli (ATCC, 11775), Klebsiella pneumoniae (ATCC, 13883), Methicillin-resistant Staphylococcus aureus (ATCC, BAA-41), Pseudomonas aeruginosa (ATCC, 10145), Salmonella enterica (ATCC, 14028), Serratia marcescens (ATCC, 13880), Staphylococcus aureus (ATCC, 25923) and Vibrio parahaemolyticus (ATCC, 17802). All microbial strains were cultivated overnight at 37 °C and 200 rpm, then subcultured and incubated for 3 h under the same incubation conditions to obtain the mid-logarithmic growth phase. The cultivated cells were washed twice with 10 mM Tris–HCl containing 5 mM D-glucose at pH 7.4 and suspended in the same buffer to be used in different assays, as previously described.
As a conclusive quantitative assessment, broth microtiter assay was used to determine the MIC values of each cryptide against B. subtilis, MRSA, S. enterica, P. aeruginosa, V. parahaemolyticus and C. albicans by following the guidelines of the Clinical and Laboratory Standards Institute (CLSI)[67], with slight modifications. Eighty microliters of 5 × 10^4 CFU/ml of each pathogen were dispensed into a 96-well polypropylene microtiter plate. The wells were then treated with 20 µl of serially diluted cryptides for 3 h at 37 °C. Gentamicin was used for positive controls at 0.2 mg/ml while an equivalent volume of acidified water was used for negative controls. The plates were then topped up with a final concentration of 1 × Mueller Hinton Broth (MHB) and incubated for 18 h under the same incubation conditions. MIC was detected as the lowest concentration of each cryptide that prevents the optically detectable microbial growth at OD = 600 nm.

C. albicans = assay type: cell-based, Candida albicans (TIMM, 1768); conditions: 20 µl of wells without growth on Sabouraud 4% Dextrose Agar, 18 h, 37 °C
human RBCs = assay: Hemolytic assay; assay type: cell-based; conditions: 2% RBCs in PBS, 2 h, 37 °C, supernatant at 450 nm, 0.1% TritonX-100 = maximum; highest tested concentration 100 µM
Method: All methods were carried out in accordance with the Declaration of Helsinki, and the Research Ethics Committee approved all experimental protocols at Sunway University (approval no. PGSUREC2020/005). A human blood sample was collected from a healthy person for this assay upon obtaining informed consent. The fresh blood sample was centrifuged at 3700 g for 5 min at RT. The supernatant (serum) was removed and red blood cells (RBCs) were washed three times with 1X PBS and diluted to a final concentration of 2% (PBS—137 mM NaCl, 2.7 mM KCl, 10 mM Na2HPO4, 1.76 mM KH2PO4). Cells were stored at 4 °C, and used within 5 h.
The hemolytic activities of the identified cryptides were evaluated as previously described. The prepared RBCs were treated with different peptide concentrations for 2 h at 37 °C. The treated RBCs were centrifuged, under the same centrifugation conditions, and the supernatants were transferred to a 96-well plate and measured at 450 nm.

MRSA = assay type: cell-based, Methicillin-resistant Staphylococcus aureus (ATCC, BAA-41); conditions: 20 µl of wells without growth on agar, 18 h, 37 °C
S. enterica = assay: Radial diffusion assay; assay type: cell-based, Salmonella enterica (ATCC, 14028); conditions: 5 µl of 500 µM per 3 mm well, 37 °C, mean ± SD
From the text: as §1
The antimicrobial activity spectra of the selected cryptides were screened against all the mentioned microbial pathogens, except V. parahaemolyticus, by radial diffusion assay as previously described, with slight modifications. […] The plates were then incubated for 18 h, and the antimicrobial activities were measured in the absolute unit (AU), as previously described. […]
plate. The plates were then incubated for 12 h at 37 °C and antimicrobial activities were measured in the term of absolute unit (A.U). […]

CC(C)C[C@H](NC(=O)[C@H](CCCNC(=N)N)NC(=O)[C@H](Cc1c[nH]c2ccccc12)NC(=O)[C@H](CCCNC(=N)N)NC(=O)[C@H](CC(C)C)NC(=O)[C@@H](N)Cc1ccccc1)C(=O)N[C@@H](CCCCN)C(=O)N[C@@H](Cc1ccccc1)C(=O)N[C@@H](CCCCN)C(=O)N[C@@H](CO)C(=O)N[C@@H](CCCCN)C(=O)N[C@H](C(=O)N[C@@H](Cc1c[nH]c2ccccc12)C(=O)N[C@@H](CS)C(=O)N1CCC[C@H]1C(=O)O)C(C)C [AD7] (H-FLRWRLKFKSKVWCP-OH)
Cell death of HEK-293 (HEK-293): less than 10% | MBC (µM) B. subtilis (B. subtilis): 0.39 µM (≈ 0.778 µg/mL) | MIC (µM) P. aeruginosa (P. aeruginosa): 6.25 µM (≈ 12.5 µg/mL) | MFC (µM) C. albicans (C. albicans): 6.25 µM (≈ 12.5 µg/mL) | Hemolysis of human RBCs at 100 µM (human RBCs): 26.5% | MBC (µM) MRSA (MRSA): 3.12 µM (≈ 6.22 µg/mL)

CSCC[C@H](NC(=O)[C@H](CCCCN)NC(=O)CNC(=O)[C@H](CCCCN)NC(=O)[C@H](Cc1ccc(O)cc1)NC(=O)[C@H](CC(N)=O)NC(=O)[C@H](CC(C)C)NC(=O)[C@H](CCC(N)=O)NC(=O)[C@H](CC(C)C)NC(=O)[C@@H](N)CCCNC(=N)N)C(=O)N[C@@H](Cc1c[nH]c2ccccc12)C(=O)N[C@@H](CS)C(=O)N1CCC[C@H]1C(=O)NCC(=O)N[C@@H](Cc1c[nH]c2ccccc12)C(=O)O [AD11] (H-RLQLNYKGKMWCPGW-OH)
Cell death of HEK-293 (HEK-293): less than 10% | MBC (µM) B. subtilis (B. subtilis): 0.78 µM (≈ 1.47 µg/mL) | MIC (µM) P. aeruginosa (P. aeruginosa): 25 µM (≈ 47 µg/mL) | MFC (µM) C. albicans (C. albicans): 25 µM (≈ 47 µg/mL) | Hemolysis of human RBCs at 100 µM (human RBCs): 20.7% | MBC (µM) MRSA (MRSA): 12.5 µM (≈ 23.5 µg/mL)

RHCLRSKRPPNVCPH [AD4, cationic cryptide from P. vannamei precursor DN34505 (Pl-crustin 2), chemically synthesised]
Cell death of HEK-293 (HEK-293): less than 10% | Antimicrobial activity (inhibition zone) S. enterica (S. enterica): 7.7 ± 1 A.U. | MBC (µM) B. subtilis (B. subtilis): 1.56 µM | MIC (µM) P. aeruginosa (P. aeruginosa): > 50 µM | MFC (µM) C. albicans (C. albicans): 25 µM | MBC (µM) MRSA (MRSA): 12.5 µM

Reference: paper PMC10482825 (Scientific Reports, 2023)
